In paper PMC9121888 (Pharmacology Research & Perspectives, 2022):
Read-outs that look alike come from different tables or passages of the source.

Columns and labels:
[1] = Study 1 plasma pharmacokinetics of verinurad, allopurinol and oxypurinol; format: in vivo, human; conditions: for Tmax: median (range)
Experimental: Cohort 1 was randomized, double‐blind, and placebo‐controlled and consisted of 12 healthy Asian participants, of whom <50% were Chinese. Cohort 2 was open‐label, consisting of 9 healthy Chinese participants.
In both studies, participants received verinurad capsules with an extended‐release profile. On the days of pharmacokinetic sampling, treatment was given in fasting state.
Verinurad plasma samples were analyzed using similar methodologies as described by Shen et al.[13] with lower and upper limits of quantification of 0.100 ng/mL and 40.0 ng/mL, respectively.

[2] = tested on: serum uric acid (sUA) and urinary uric acid (uUA); conditions: for sUA mean percentage change from screening: after 300 mg allopurinol QD for 7 days, day 1 (pre-dose); for sUA level at baseline (day –1): following 7 days of 300 mg allopurinol run-in
[3] = human, plasma, oral, healthy Asian participants, 24 mg verinurad + 300 mg allopurinol QD, Day 1, geometric mean (gCV%), read-out: Cmax
[4] = human, plasma, oral, healthy Asian participants, 24 mg verinurad + 300 mg allopurinol QD, Day 1, read-out: tmax
[5] = human, plasma, oral, healthy Asian participants, 24 mg verinurad + 300 mg allopurinol QD, Day 7, geometric mean (gCV%), read-out: AUCτ
[6] = human, plasma, oral, healthy Asian participants, 24 mg verinurad + 300 mg allopurinol QD, Day 7, geometric mean (gCV%), read-out: Cmax
[7] = human, plasma, oral, healthy Chinese participants, 12 mg verinurad + 300 mg allopurinol day 1 and QD days 3-9, Day 9, geometric mean (gCV%), read-out: AUCτ
[8] = human, plasma, oral, healthy Chinese participants, 12 mg verinurad + 300 mg allopurinol day 1 and QD days 3-9, Day 9, read-out: tmax
[9] = human, plasma, oral, healthy Chinese participants, 12 mg verinurad + 300 mg allopurinol, Day 1, geometric mean (gCV%), read-out: AUC
[10] = human, plasma, oral, healthy Chinese participants, 12 mg verinurad + 300 mg allopurinol, Day 1, geometric mean (gCV%), read-out: AUCτ
[11] = human, plasma, oral, healthy Chinese participants, 12 mg verinurad + 300 mg allopurinol, Day 1, geometric mean (gCV%), read-out: Cmax
[12] = human, plasma, oral, healthy Chinese participants, 12 mg verinurad + 300 mg allopurinol, Day 1, read-out: tmax

Cmax [1, 3] | Tmax [1, 4] | AUC [1, 5] | Cmax [1, 6] | AUC [1, 7] | Tmax [1, 8] | AUC [1, 9] | AUC [1, 10] | Cmax [1, 11] | Tmax [1, 12] | Structure (SMILES) | further results
1770 ng/mL | 2 h | 6020 ng·h/mL | 1780 ng/mL | 5740 ng·h/mL | 2.55 h | 6210 ng·h/mL | 6210 ng·h/mL | 1940 ng/mL | 1.52 h | Oc1ncnc2[nH]ncc12 [allopurinol, reference compound] | AUC ([1]; human, plasma, oral, healthy Asian participants, 24 mg verinurad + 300 mg allopurinol QD, Day 1, geometric mean (gCV%), read-out: AUC): 6220 ng·h/mL; AUC ([1]; human, plasma, oral, healthy Asian participants, 24 mg verinurad + 300 mg allopurinol QD, Day 1, geometric mean (gCV%), read-out: AUCτ): 6230 ng·h/mL; Tmax ([1]; human, plasma, oral, healthy Asian participants, 24 mg verinurad + 300 mg allopurinol QD, Day 7, read-out: tmax): 3 h; Cmax ([1]; human, plasma, oral, healthy Chinese participants, 12 mg verinurad + 300 mg allopurinol day 1 and QD days 3-9, Day 9, geometric mean (gCV%), read-out: Cmax): 1570 ng/mL; sUA mean percentage change from screening ([2]; healthy Asian participants): −26.1%; sUA level at baseline (day –1) ([2]; healthy Asian participants, screening 6.31 mg/dL): 4.77 mg/dL; sUA mean percentage change from screening ([2]; healthy Chinese participants): −23.5%; sUA level at baseline (day –1) ([2]; healthy Chinese participants, screening 5.64 mg/dL): 4.49 mg/dL
11100 ng/mL | 3 h | 120000 ng·h/mL | 7700 ng/mL | 139000 ng·h/mL | 3.1 h | 342000 ng·h/mL | 201000 ng·h/mL | 11800 ng/mL | 2 h | O=c1[nH]c(=O)c2c[nH]nc2[nH]1 [Oxypurinol, oxypurinol] | AUCτ ([1]; healthy Asian participants, 24 mg verinurad + 300 mg allopurinol QD, Day 1, geometric mean (gCV%)): 180700 (18.3) ng·h/mL; Tmax ([1]; healthy Asian participants, 24 mg verinurad + 300 mg allopurinol QD, Day 7): 4.00 (3.00–6.00) h; Cmax ([1]; healthy Chinese participants, 12 mg verinurad + 300 mg allopurinol day 1 and QD days 3-9, Day 9, geometric mean (gCV%)): 8520 (10.5) ng/mL
